Results: patent US10150760B2, “Compounds for use in preparing heterocyclic triazole agonists of the APJ receptor” (AMGEN INC., priority 2016, dated 2018)

Target: human APJ receptor (Homo sapiens (Human), UniProt P35414)
Assay: [35S]GTPγS binding assay on membranes from CHO cells stably expressing human APJ receptor
Assay type: biochemical
Details: read-out: Activity hAPJ SPA EC50 IP
Method: The human APJ receptor was cloned by polymerase chain reaction and the gene encoding the receptor was subcloned in pFLAG-CMV™-3 expression vector (Sigma, Saint Louis, Mo. USA) in-house at Amgen. A GTPγS binding assay was performed on membranes prepared from CHO cells stably expressing human APJ receptor. The optimum experimental conditions for the concentrations of GDP, MgCl2, and NaCl in the assay buffer were initially determined. The assay was performed in assay buffer [20 mM HEPES, pH 7.5, 5 mM MgCl2, and 0.1% (w/v) BSA with 200 mM NaCl, 3 μM GDP] and membranes expressing human APJ receptor/well along with WGA PS beads. The reaction was initiated by addition of 0.2 nM [^35S]GTPγS (Perkin Elmer Life and Analytical Sciences, Waltham USA) in the absence or presence of various ligands and incubated at RT for 90 min. Nonspecific binding was determined in the presence of 100 μM GTPγS and was always less than 0.2% of total binding. All the results presented are means of several independent experiments and analyzed by non-linear regression methods using commercially available program Prism (GraphPad, San Diego, Calif.) to obtain EC50 detailed in Table 38.

human APJ receptor, sequence (P35414 whole entry): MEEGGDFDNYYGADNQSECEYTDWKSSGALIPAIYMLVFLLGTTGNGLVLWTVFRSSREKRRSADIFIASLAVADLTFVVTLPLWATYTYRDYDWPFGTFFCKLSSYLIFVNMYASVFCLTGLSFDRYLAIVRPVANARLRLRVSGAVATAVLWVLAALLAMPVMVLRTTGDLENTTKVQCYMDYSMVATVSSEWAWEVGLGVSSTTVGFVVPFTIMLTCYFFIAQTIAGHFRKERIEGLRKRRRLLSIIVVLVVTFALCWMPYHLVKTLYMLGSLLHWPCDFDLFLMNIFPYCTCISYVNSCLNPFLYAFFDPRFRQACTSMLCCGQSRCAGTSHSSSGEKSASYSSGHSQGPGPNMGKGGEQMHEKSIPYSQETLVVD

SMILES | EC50
COc1cccc(OC)c1-n1c(NS(=O)(=O)[C@@H](C)[C@H](OC)c2ncc(Cl)cn2)nnc1[C@H]1CCCOC1 (single isomer, unassigned) [Example 64.0, (1R,2S)-1-(5-chloropyrimidin-2-yl)-N-(4-(2,6-dimethoxyphenyl)-5-((R)-tetrahydro-2H-pyran-3-yl)-4H-1,2,4-triazol-3-yl)-1-methoxypropane-2-sulfonamide or (1R,2S)-1-(5-chloropyrimidin-2-yl)-N-(4-(2,6-dimethoxyphenyl)-5-((S)-tetrahydro-2H-pyran-3-yl)-4H-1,2,4-triazol-3-yl)-1-methoxypropane-2-sulfonamide] | 29 nM
COc1cccc(OC)c1-n1c(NS(=O)(=O)[C@@H](C)[C@@H](OC(C)C)c2cnc(C)cn2)nnc1[C@H]1CCCO1 (single isomer, unassigned) [Example 66.0] | 6.9 nM
COc1cccc(OC)c1-n1c(NS(=O)(=O)[C@@H](C)[C@@H](OC(C)C)c2cnc(C)cn2)nnc1[C@H]1CCCO1 (single isomer, unassigned) [Example 67.0] | 180 nM
COc1cccc(OC)c1-n1c(NS(=O)(=O)[C@@H](C)[C@H](C)c2ncc(Cl)cn2)nnc1[C@H]1OCC[C@H]1C (single isomer, unassigned) [Example 68.0, (2S,3R)-3-(5-chloropyrimidin-2-yl)-N-(4-(2,6-dimethoxyphenyl)-5-((2S,3R)-3-methyltetrahydrofuran-2-yl)-4H-1,2,4-triazol-3-yl)butane-2-sulfonamide or (2S,3R)-3-(5-chloropyrimidin-2-yl)-N-(4-(2,6-dimethoxyphenyl)-5-((2R,3S)-3-methyltetrahydrofuran-2-yl)-4H-1,2,4-triazol-3-yl)butane-2-sulfonamide] | 14 nM
COc1ncnc(OC)c1-n1c(NS(=O)(=O)[C@@H](C)[C@H](C)c2ncc(C)cn2)nnc1[C@H]1CCCO1 (single isomer, unassigned) [Example 69.0, (2S,3R)-N-(4-(4,6-dimethoxypyrimidin-5-yl)-5-((S)-tetrahydrofuran-2-yl)-4H-1,2,4-triazol-3-yl)-3-(5-methylpyrimidin-2-yl)butane-2-sulfonamide or (2S,3R)-N-(4-(4,6-dimethoxypyrimidin-5-yl)-5-((R)-tetrahydrofuran-2-yl)-4H-1,2,4-triazol-3-yl)-3-(5-methylpyrimidin-2-yl)butane-2-sulfonamide] | 82 nM
COc1ncnc(OC)c1-n1c(NS(=O)(=O)[C@@H](C)[C@H](C)c2ncc(C)cn2)nnc1[C@H]1CCCO1 (single isomer, unassigned) [Example 70.0, (2S,3R)-N-(4-(4,6-dimethoxypyrimidin-5-yl)-5-((S)-tetrahydrofuran-2-yl)-4H-1,2,4-triazol-3-yl)-3-(5-methylpyrimidin-2-yl)butane-2-sulfonamide or (2S,3R)-N-(4-(4,6-dimethoxypyrimidin-5-yl)-5-((R)-tetrahydrofuran-2-yl)-4H-1,2,4-triazol-3-yl)-3-(5-methylpyrimidin-2-yl)butane-2-sulfonamide] | 15 nM
COc1cccc(OC)c1-n1c(NS(=O)(=O)[C@@H](C)[C@H](C)c2ncc(C)cn2)nnc1[C@H]1OCC[C@H]1C (single isomer, unassigned) [Example 71.0, (2S,3R)-N-(4-(2,6-dimethoxyphenyl)-5-((2R,3S)-3-methyltetrahydrofuran-2-yl)-4H-1,2,4-triazol-3-yl)-3-(5-methylpyrimidin-2-yl)butane-2-sulfonamide or (2S,3R)-N-(4-(2,6-dimethoxyphenyl)-5-((2S,3R)-3-methyltetrahydrofuran-2-yl)-4H-1,2,4-triazol-3-yl)-3-(5-methylpyrimidin-2-yl)butane-2-sulfonamide] | 450 nM
COc1cccc(OC)c1-n1c(NS(=O)(=O)[C@@H](C)[C@H](C)c2ncc(Cl)cn2)nnc1[C@H]1OCC[C@H]1C (single isomer, unassigned) [Example 75.0, (2S,3R)-3-(5-chloropyrimidin-2-yl)-N-(4-(2,6-dimethoxyphenyl)-5-((2R,3S)-3-methyltetrahydrofuran-2-yl)-4H-1,2,4-triazol-3-yl)butane-2-sulfonamide or (2S,3R)-3-(5-chloropyrimidin-2-yl)-N-(4-(2,6-dimethoxyphenyl)-5-((2S,3R)-3-methyltetrahydrofuran-2-yl)-4H-1,2,4-triazol-3-yl)butane-2-sulfonamide] | 210 nM
COc1cccc(OC)c1-n1c(NS(=O)(=O)[C@@H](C)[C@H](C)c2ncc(Cl)cn2)nnc1[C@H]1OCC[C@H]1C (single isomer, unassigned) [Example 76.0, (2S,3R)-3-(5-chloropyrimidin-2-yl)-N-(4-(2,6-dimethoxyphenyl)-5-((2R,3S)-3-methyltetrahydrofuran-2-yl)-4H-1,2,4-triazol-3-yl)butane-2-sulfonamide or (2S,3R)-3-(5-chloropyrimidin-2-yl)-N-(4-(2,6-dimethoxyphenyl)-5-((2S,3R)-3-methyltetrahydrofuran-2-yl)-4H-1,2,4-triazol-3-yl)butane-2-sulfonamide] | 1.4 nM
COc1ncnc(OC)c1-n1c(NS(=O)(=O)[C@@H](C)[C@H](OC)c2ncc(Cl)cn2)nnc1[C@H]1CCCO1 (single isomer, unassigned) [Example 79.0, (1R,2S)-1-(5-chloropyrimidin-2-yl)-N-(4-(4,6-dimethoxypyrimidin-5-yl)-5-((S)-tetrahydrofuran-2-yl)-4H-1,2,4-triazol-3-yl)-1-methoxypropane-2-sulfonamide or (1R,2S)-1-(5-chloropyrimidin-2-yl)-N-(4-(4,6-dimethoxypyrimidin-5-yl)-5-((R)-tetrahydrofuran-2-yl)-4H-1,2,4-triazol-3-yl)-1-methoxypropane-2-sulfonamide] | 110 nM
COc1ncnc(OC)c1-n1c(NS(=O)(=O)[C@@H](C)[C@H](C)c2ncc(Cl)cn2)nnc1[C@H]1CCCO1 (single isomer, unassigned) [Example 81.0, (2S,3R)-3-(5-chloropyrimidin-2-yl)-N-(4-(4,6-dimethoxypyrimidin-5-yl)-5-((S)-tetrahydrofuran-2-yl)-4H-1,2,4-triazol-3-yl)butane-2-sulfonamide or (2S,3R)-3-(5-chloropyrimidin-2-yl)-N-(4-(4,6-dimethoxypyrimidin-5-yl)-5-((R)-tetrahydrofuran-2-yl)-4H-1,2,4-triazol-3-yl)butane-2-sulfonamide] | 82 nM
COc1ncnc(OC)c1-n1c(NS(=O)(=O)[C@@H](C)[C@H](C)c2ncc(Cl)cn2)nnc1[C@H]1CCCO1 (single isomer, unassigned) [Example 82.0, (2S,3R)-3-(5-chloropyrimidin-2-yl)-N-(4-(4,6-dimethoxypyrimidin-5-yl)-5-((S)-tetrahydrofuran-2-yl)-4H-1,2,4-triazol-3-yl)butane-2-sulfonamide or (2S,3R)-3-(5-chloropyrimidin-2-yl)-N-(4-(4,6-dimethoxypyrimidin-5-yl)-5-((R)-tetrahydrofuran-2-yl)-4H-1,2,4-triazol-3-yl)butane-2-sulfonamide] | 3 nM
